One test addresses T1, hLPA1 (Homo sapiens, UniProt Q92633).
T1 construct: expressed in transfected cells; host or cells: 293A cells
Description: TGFα-shedding assay, LPA1. Particulars: 293A cells, AP-TGFα release; for EC50: 1 h; for Emax: read-out: Emax ± SEM hLPA1 (converted). It counts as cell-based. How it is done: Figure 4 Agonistic activity of 2-carba-lysophosphatidic acid (2carbaLPA) and cyclic phosphatidic acid (cPA) analogues toward six lysophosphatidic acid (LPA) receptors. 293A cells expressing LPA receptors were stimulated with the indicated concentration of LPA, 2carbaLPA, and cPA analogues. Receptor-specific alkaline phosphatase-tagged transforming growth factor-α release was calculated by subtracting the responses in the empty vector-transfected cells from those in the receptor-expressing cells. Data are represented as standard error of the mean of three independent replicates.
(§1) 293A cells (Life Technologies, Tokyo, Japan) were cultured in DMEM (Nissui Pharmaceutical, Tokyo, Japan) supplemented with 10% foetal calf serum (Gibco, Waltham, MA, USA) in an incubator at 37 °C and 5% CO2. This assay was conducted according to a modified version of a method described previously. To improve signal detection, cells for the analysis of LPA1, LPA2, LPA4, and LPA5 were transfected with Gα-chimeric proteins, whereas those for LPA4, LPA5, LPA6 analysis were treated with the LPA1–3 antagonist Ki16425. The cells were co-transfected with vectors-expressing human LPA1–6, alkaline phosphatase-tagged TGFα (AP-TGFα). As negative controls, cells transfected with an empty vector instead of the receptor-expressing vector were used. After 24 h, the cells were resuspended in Hank’s balanced salt solution (HBSS), seeded in 96-well plates, and stimulated with cPA analogues administered at tenfold concentration of the final concentration. The cPA analogues were diluted with HBSS, 0.01% protease and fatty acid-free BSA (SERVA Electrophoresis GmbH, Heidelberg, Germany). Cells for LPA4, LPA5, and LPA6 analysis were treated with Ki16425 (final concentration: 10 μM), 5 min before treatment with the cPA analogues. After incubation for 1 h at 37 °C, 80 µL of the supernatant was transferred to fresh 96-well plates. An equal volume of 1 mM p-NPP solution [120 mM Tris–HCl (pH 9.5), 40 mM NaCl, and 10 mM MgCl2] was added to both the supernatant and the cells. Alkaline phosphatase activity was calculated by measuring absorbance at 405 nm using the Cytation 3 plate reader (BioTek, Winooski, VT, USA).

The target in the next test is T2, hLPA6 (Homo sapiens, UniProt P43657).
T2 construct: expressed in transfected cells; host or cells: 293A cells
T2 sequence (P43657 1-344): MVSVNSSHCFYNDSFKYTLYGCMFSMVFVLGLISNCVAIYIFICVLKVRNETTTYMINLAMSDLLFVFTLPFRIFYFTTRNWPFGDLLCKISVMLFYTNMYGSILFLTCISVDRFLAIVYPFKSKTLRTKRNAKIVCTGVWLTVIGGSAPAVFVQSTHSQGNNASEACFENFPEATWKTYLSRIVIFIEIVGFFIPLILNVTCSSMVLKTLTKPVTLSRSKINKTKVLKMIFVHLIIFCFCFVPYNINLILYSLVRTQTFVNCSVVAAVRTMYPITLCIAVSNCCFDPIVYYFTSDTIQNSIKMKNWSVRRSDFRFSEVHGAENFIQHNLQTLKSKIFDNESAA
Nature of the test: TGFα-shedding assay, LPA6. It counts as cell-based. Conditions: 293A cells, AP-TGFα release; for EC50: 1 h; for Emax: read-out: Emax ± SEM hLPA6 (converted). The method, then:
293A cells expressing LPA receptors were stimulated with the indicated concentration of LPA, 2carbaLPA, and cPA analogues. Receptor-specific alkaline phosphatase-tagged transforming growth factor-α release was calculated by subtracting the responses in the empty vector-transfected cells from those in the receptor-expressing cells. Data are represented as standard error of the mean of three independent replicates.
as §1, with “To improve signal detection, cells for the analysis of LPA1, LPA2, LPA4, and LPA5 were transfected with Gα-chimeric proteins, whereas those for LPA4, LPA5, LPA6 analysis were treated with the LPA1–3 antagonist Ki16425.” left out

T1 sequence (Q92633 whole entry): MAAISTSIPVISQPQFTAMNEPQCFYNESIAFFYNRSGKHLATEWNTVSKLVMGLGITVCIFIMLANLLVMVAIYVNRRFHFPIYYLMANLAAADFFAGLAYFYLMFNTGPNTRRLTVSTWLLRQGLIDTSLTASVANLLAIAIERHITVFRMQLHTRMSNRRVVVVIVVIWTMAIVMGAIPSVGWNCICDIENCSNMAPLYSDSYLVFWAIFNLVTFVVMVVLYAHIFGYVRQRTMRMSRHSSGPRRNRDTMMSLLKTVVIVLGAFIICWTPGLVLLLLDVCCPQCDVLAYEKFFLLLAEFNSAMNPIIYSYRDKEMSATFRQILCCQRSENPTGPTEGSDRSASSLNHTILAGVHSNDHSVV

With `CCCCCCCC/C=C\CCCCCCCC(=O)OC[C@@H]1COP(=O)(O)O1` [cPA 18:1, 1-Oleoyl-cPA], at hLPA1, the EC50 (usually the concentration that produces a half-maximal response) is 460 nM and the Emax – broadly, the maximal effect, on the per cent scale that the assay sets – is 24.1%. The EC50 at hLPA6 (bound) is over 3000 nM.
Taken in the same sequence, the figures for `CCCCCCCC/C=C\CCCCCCCC(=O)OCC1COP(=O)(O)C1` (centres unmarked) [2ccPA 18:1, 2-carba-cyclic phosphatidic acid] were 997 nM, 20.6% and over 3000 nM.
Turning to `CCCCCCCC/C=C\CCCCCCCC(=O)OCC(CO)CP(=O)(O)O` (centres unmarked) [2carbaLPA 18:1, 2-carba-lysophosphatidic acid], the EC50 at hLPA1 stood at 54.8 nM; at hLPA6 (with Ki16425 10 μM), 90.9 nM. Also, the Emax on hLPA1 was 27%; on hLPA6, 29.3%.
For the compound `CCCCCCCC/C=C\CCCCCCCC(=O)OC[C@@H]1CCP(=O)(O)O1` [3ccPA 18:1, 3-carba-cyclic phosphatidic acid], the EC50 was 370 nM on hLPA1 and over 3000 nM at hLPA6 (bound). The Emax on hLPA1 is 26.9%.
Take `CCCCCCCC/C=C\CCCCCCCC(=O)OC[C@@H](O)CCP(=O)(O)O` [3carba LPA 18:1, 3-carba-lysophosphatidic acid]: the figures for the EC50 on hLPA1 and on hLPA6 (with Ki16425 10 μM) were 11 nM and 132 nM, respectively. For the same compound, the Emax on hLPA1 is 26.9%; at hLPA6, 27.1%.

(Values after article PMC8405639, “2-Carba-lysophosphatidic acid is a novel β-lysophosphatidic acid analogue with high potential for lysophosphatidic acid receptor activation and autotaxin inhibition” (Scientific Reports, 2021).)
